From patent US6812028B1, “Embryogenesis and plant regeneration from microspores” (University of Guelph, priority 1999, dated 2004)

System: spring wheat Pavon 79 microspores
Assay: AGP concentrations in microspore culture in MMS4 liquid media
Assay type: cell-based
Conditions: for # at Day 12 Alive / # at Day 12 Dead / # at Day 12 Dividing / # at Day 12 ELS / # at Day 12 Multicellular / # at Day 12 Total Developing / Day 50 # of embryos: 4 rep average
Method: In an experiment with Pavon 79, concentrations of 0, 10, 25, 50, 100, 500 and 1000 mg/L were used in microspore culture with 4 ovaries around a drop of liquid medium with microspores on top of solidified medium. […] However, higher concentrations can also be used. […] It was observed that 10 to 14 days in induction medium with AGP may be maximal as it appears that regeneration may be reduced with longer periods on medium with AGP.

Question: Which results are given for arabinogalactan protein [AGP]?
Answer: # at Day 12 Alive (AGP 10 mg/L): 69.3; # at Day 12 Dead (AGP 10 mg/L): 58.9; # at Day 12 Dividing (AGP 10 mg/L): 23.9; # at Day 12 ELS (AGP 10 mg/L): 8.7; # at Day 12 Multicellular (AGP 10 mg/L): 33.8; # at Day 12 Total Developing (AGP 10 mg/L): 66.4; Day 50 # of embryos (AGP 10 mg/L): 4493; # at Day 12 Alive (AGP 25 mg/L): 66.6; # at Day 12 Dead (AGP 25 mg/L): 69.3; # at Day 12 Dividing (AGP 25 mg/L): 13.6; # at Day 12 ELS (AGP 25 mg/L): 10.3; # at Day 12 Multicellular (AGP 25 mg/L): 38; # at Day 12 Total Developing (AGP 25 mg/L): 61.9; Day 50 # of embryos (AGP 25 mg/L): 3538; # at Day 12 Alive (AGP 50 mg/L): 47.9; # at Day 12 Dead (AGP 50 mg/L): 75; # at Day 12 Dividing (AGP 50 mg/L): 10.7; # at Day 12 ELS (AGP 50 mg/L): 5; # at Day 12 Multicellular (AGP 50 mg/L): 13.2; # at Day 12 Total Developing (AGP 50 mg/L): 28.9; Day 50 # of embryos (AGP 50 mg/L): 471; # at Day 12 Alive (AGP 100 mg/L): 66.4; # at Day 12 Dead (AGP 100 mg/L): 61; # at Day 12 Dividing (AGP 100 mg/L): 17.3; # at Day 12 ELS (AGP 100 mg/L): 2.9; # at Day 12 Multicellular (AGP 100 mg/L): 32.2; # at Day 12 Total Developing (AGP 100 mg/L): 52.4; Day 50 # of embryos (AGP 100 mg/L): 3709; # at Day 12 Alive (AGP 500 mg/L): 57.3; # at Day 12 Dead (AGP 500 mg/L): 61; # at Day 12 Dividing (AGP 500 mg/L): 19.4; # at Day 12 ELS (AGP 500 mg/L): 4.5; # at Day 12 Multicellular (AGP 500 mg/L): 27.7; # at Day 12 Total Developing (AGP 500 mg/L): 51.6; Day 50 # of embryos (AGP 500 mg/L): 3267; # at Day 12 Alive (AGP 1000 mg/L): 69.3; # at Day 12 Dead (AGP 1000 mg/L): 56; # at Day 12 Dividing (AGP 1000 mg/L): 14.8; # at Day 12 ELS (AGP 1000 mg/L): 7; # at Day 12 Multicellular (AGP 1000 mg/L): 28.5; # at Day 12 Total Developing (AGP 1000 mg/L): 50.3; Day 50 # of embryos (AGP 1000 mg/L): 1821; microspore viability at day 12 versus control with no AGP (AGP 10-1000 mg/L, Pavon 79): not significantly different from the control value; embryogenesis across AGP concentrations (AGP concentrations of 10 or 25 mg/liter): optimal embryogenesis; total number of developing structures (in the presence of AGP, day 12, Pavon 79): improved
